{"source": "patent US4228292A", "about": "“N-Substituted benzothiazolines and benzoxazolines and their use as herbicides and plant growth regulants” (Monsanto Company, priority 1978, dated 1980); note: ranges in brackets are in %", "format_in_all_cases": "in vivo", "key": {"Rice [1]": {"tested_on": "Rice", "assay": "post-emergent herbicidal test", "details": "O", "description": "(§1) The post-emergent tests were conducted as follows:\n(§2) The herbicidal active ingredients are applied in spray form to two or three-week old specimens of various plant species. The spray, a solution or wettable powder suspension containing the appropriate rate of herbicidal active ingredient to give the desired test rate and a surfactant, is applied to the plants. The treated plants are placed in a greenhouse and approximately two or four weeks later the effects are observed and recorded. The results are shown in Tables IX and X in which the post-emergent herbicidal rating code is as follows: […]"}, "Hemp Sesbania [2]": {"tested_on": "Hemp Sesbania", "assay": "post-emergent herbicidal test", "details": "R", "description": "as §1, §2"}, "Sugar Beet [3]": {"tested_on": "Sugar Beet", "assay": "post-emergent herbicidal test", "details": "M", "description": "as §1, §2"}, "Wheat [4]": {"tested_on": "Wheat", "assay": "post-emergent herbicidal test", "details": "N", "description": "as §1, §2"}, "Sorghum [5]": {"tested_on": "Sorghum", "assay": "post-emergent herbicidal test", "details": "P", "description": "as §1, §2"}, "Soybean [6]": {"tested_on": "Soybean", "assay": "post-emergent herbicidal test", "details": "L", "description": "as §1, §2"}, "Crabgrass [7]": {"tested_on": "Crabgrass", "assay": "post-emergent herbicidal test", "details": "T", "description": "as §1, §2"}, "Panicum Spp [8]": {"tested_on": "Panicum Spp", "assay": "post-emergent herbicidal test", "details": "S", "description": "as §1, §2"}, "Wild Buckwheat [9]": {"tested_on": "Wild Buckwheat", "assay": "post-emergent herbicidal test", "details": "Q", "description": "as §1, §2"}, "Rice [10]": {"tested_on": "Rice", "assay": "pre-emergent herbicidal test", "details": "O, 4 WAT", "description": "(§3) The pre-emergent test was conducted as follows:\n(§4) A good grade of top soil was placed in aluminum pans and compactd to a depth of 0.95 to 1.27 cm. from the top of the pan. On the top of the soil was placed a predetermined number of seeds or vegetative propagules of various plant species. The soil required to level fill the pans after seeding or adding vegetative propagules was weighed into a pan. A known amount of the herbicidal active ingredient applied in a solvent or as a wettable powder and the soil were thoroughly mixed, and used as a cover layer for prepared pans. After treatment the pans were moved into a greenhouse bench where they were watered from below as needed to give adequate moisture for germination and growth.\n(§5) A herbicidal rating code was used to signify the extent of phytotoxicity of each species. The ratings are defined as follows: […]"}, "Hemp Sesbania [11]": {"tested_on": "Hemp Sesbania", "assay": "pre-emergent herbicidal test", "details": "R, 4 WAT", "description": "as §3, §4, §5"}, "Sugar Beet [12]": {"tested_on": "Sugar Beet", "assay": "pre-emergent herbicidal test", "details": "M, 4 WAT", "description": "as §3, §4, §5"}, "Wheat [13]": {"tested_on": "Wheat", "assay": "pre-emergent herbicidal test", "details": "N, 4 WAT", "description": "as §3, §4, §5"}, "Sorghum [14]": {"tested_on": "Sorghum", "assay": "pre-emergent herbicidal test", "details": "P, 4 WAT", "description": "as §3, §4, §5"}, "Soybean [15]": {"tested_on": "Soybean", "assay": "pre-emergent herbicidal test", "details": "L, 4 WAT", "description": "as §3, §4, §5"}, "Crabgrass [16]": {"tested_on": "Crabgrass", "assay": "pre-emergent herbicidal test", "details": "T, 4 WAT", "description": "as §3, §4, §5"}, "Panicum Spp [17]": {"tested_on": "Panicum Spp", "assay": "pre-emergent herbicidal test", "details": "S, 4 WAT", "description": "as §3, §4, §5"}, "Wild Buckwheat [18]": {"tested_on": "Wild Buckwheat", "assay": "pre-emergent herbicidal test", "details": "Q, 4 WAT", "description": "as §3, §4, §5"}}, "data": [{"smiles": "COC(=N)Cn1c(=O)sc2ccccc21", "note": "[Compound 38]", "values": [{"measurement": "post-emergent herbicidal rating", "setting": "Rice [1]; 0.28 kg/h, 2 WAT", "result": "0 (0-24)"}, {"measurement": "post-emergent herbicidal rating", "setting": "Rice [1]; 1.12 kg/h, 4 WAT", "result": "1 (25-49)"}, {"measurement": "post-emergent herbicidal rating", "setting": "Hemp Sesbania [2]; 0.28 kg/h, 2 WAT", "result": "0 (0-24)"}, {"measurement": "post-emergent herbicidal rating", "setting": "Hemp Sesbania [2]; 1.12 kg/h, 4 WAT", "result": "1 (25-49)"}, {"measurement": "post-emergent herbicidal rating", "setting": "Sugar Beet [3]; 0.28 kg/h, 2 WAT", "result": "1 (25-49)"}, {"measurement": "post-emergent herbicidal rating", "setting": "Sugar Beet [3]; 1.12 kg/h, 4 WAT", "result": "2 (50-74)"}, {"measurement": "post-emergent herbicidal rating", "setting": "Wheat [4]; 0.28 kg/h, 2 WAT", "result": "0 (0-24)"}, {"measurement": "post-emergent herbicidal rating", "setting": "Wheat [4]; 1.12 kg/h, 4 WAT", "result": "0 (0-24)"}, {"measurement": "post-emergent herbicidal rating", "setting": "Sorghum [5]; 0.28 kg/h, 2 WAT", "result": "0 (0-24)"}, {"measurement": "post-emergent herbicidal rating", "setting": "Sorghum [5]; 1.12 kg/h, 4 WAT", "result": "0 (0-24)"}, {"measurement": "post-emergent herbicidal rating", "setting": "Soybean [6]; 0.28 kg/h, 2 WAT", "result": "1 (25-49)"}, {"measurement": "post-emergent herbicidal rating", "setting": "Soybean [6]; 1.12 kg/h, 4 WAT", "result": "1 (25-49)"}, {"measurement": "post-emergent herbicidal rating", "setting": "Crabgrass [7]; 0.28 kg/h, 2 WAT", "result": "0 (0-24)"}, {"measurement": "post-emergent herbicidal rating", "setting": "Crabgrass [7]; 1.12 kg/h, 4 WAT", "result": "0 (0-24)"}, {"measurement": "post-emergent herbicidal rating", "setting": "Panicum Spp [8]; 0.28 kg/h, 2 WAT", "result": "0 (0-24)"}, {"measurement": "post-emergent herbicidal rating", "setting": "Panicum Spp [8]; 1.12 kg/h, 4 WAT", "result": "0 (0-24)"}, {"measurement": "post-emergent herbicidal rating", "setting": "Wild Buckwheat [9]; 0.28 kg/h, 2 WAT", "result": "0 (0-24)"}, {"measurement": "post-emergent herbicidal rating", "setting": "Wild Buckwheat [9]; 1.12 kg/h, 4 WAT", "result": "2 (50-74)"}]}, {"smiles": "COC(=N)Cn1c(=O)sc2ccccc21", "note": "[Compound 11]", "values": [{"measurement": "post-emergent herbicidal rating", "setting": "Rice [1]; 1.12 kg/h, 4 WAT", "result": "0 (0-24)"}, {"measurement": "post-emergent herbicidal rating", "setting": "Rice [1]; 5.6 kg/h, 4 WAT", "result": "0 (0-24)"}, {"measurement": "post-emergent herbicidal rating", "setting": "Hemp Sesbania [2]; 1.12 kg/h, 4 WAT", "result": "1 (25-49)"}, {"measurement": "post-emergent herbicidal rating", "setting": "Hemp Sesbania [2]; 5.6 kg/h, 4 WAT", "result": "3 (75-99)"}, {"measurement": "post-emergent herbicidal rating", "setting": "Sugar Beet [3]; 1.12 kg/h, 4 WAT", "result": "2 (50-74)"}, {"measurement": "post-emergent herbicidal rating", "setting": "Sugar Beet [3]; 5.6 kg/h, 4 WAT", "result": "4 (100)"}, {"measurement": "post-emergent herbicidal rating", "setting": "Wheat [4]; 1.12 kg/h, 4 WAT", "result": "1 (25-49)"}, {"measurement": "post-emergent herbicidal rating", "setting": "Wheat [4]; 5.6 kg/h, 4 WAT", "result": "1 (25-49)"}, {"measurement": "post-emergent herbicidal rating", "setting": "Sorghum [5]; 1.12 kg/h, 4 WAT", "result": "0 (0-24)"}, {"measurement": "post-emergent herbicidal rating", "setting": "Sorghum [5]; 5.6 kg/h, 4 WAT", "result": "1 (25-49)"}, {"measurement": "post-emergent herbicidal rating", "setting": "Soybean [6]; 1.12 kg/h, 4 WAT", "result": "1 (25-49)"}, {"measurement": "post-emergent herbicidal rating", "setting": "Soybean [6]; 5.6 kg/h, 4 WAT", "result": "3 (75-99)"}, {"measurement": "post-emergent herbicidal rating", "setting": "Crabgrass [7]; 1.12 kg/h, 4 WAT", "result": "0 (0-24)"}, {"measurement": "post-emergent herbicidal rating", "setting": "Crabgrass [7]; 5.6 kg/h, 4 WAT", "result": "0 (0-24)"}, {"measurement": "post-emergent herbicidal rating", "setting": "Panicum Spp [8]; 1.12 kg/h, 4 WAT", "result": "0 (0-24)"}, {"measurement": "post-emergent herbicidal rating", "setting": "Panicum Spp [8]; 5.6 kg/h, 4 WAT", "result": "1 (25-49)"}, {"measurement": "post-emergent herbicidal rating", "setting": "Wild Buckwheat [9]; 1.12 kg/h, 4 WAT", "result": "2 (50-74)"}, {"measurement": "post-emergent herbicidal rating", "setting": "Wild Buckwheat [9]; 5.6 kg/h, 4 WAT", "result": "4 (100)"}, {"measurement": "pre-emergent herbicidal rating", "setting": "Rice [10]; 1.12 kg/h", "result": "0 (0-24)"}, {"measurement": "pre-emergent herbicidal rating", "setting": "Rice [10]; 5.6 kg/h", "result": "0 (0-24)"}, {"measurement": "pre-emergent herbicidal rating", "setting": "Hemp Sesbania [11]; 1.12 kg/h", "result": "1 (25-49)"}, {"measurement": "pre-emergent herbicidal rating", "setting": "Hemp Sesbania [11]; 5.6 kg/h", "result": "3 (75-100)"}, {"measurement": "pre-emergent herbicidal rating", "setting": "Sugar Beet [12]; 1.12 kg/h", "result": "1 (25-49)"}, {"measurement": "pre-emergent herbicidal rating", "setting": "Sugar Beet [12]; 5.6 kg/h", "result": "2 (50-74)"}, {"measurement": "pre-emergent herbicidal rating", "setting": "Wheat [13]; 1.12 kg/h", "result": "1 (25-49)"}, {"measurement": "pre-emergent herbicidal rating", "setting": "Wheat [13]; 5.6 kg/h", "result": "1 (25-49)"}, {"measurement": "pre-emergent herbicidal rating", "setting": "Sorghum [14]; 1.12 kg/h", "result": "0 (0-24)"}, {"measurement": "pre-emergent herbicidal rating", "setting": "Sorghum [14]; 5.6 kg/h", "result": "0 (0-24)"}, {"measurement": "pre-emergent herbicidal rating", "setting": "Soybean [15]; 1.12 kg/h", "result": "2 (50-74)"}, {"measurement": "pre-emergent herbicidal rating", "setting": "Soybean [15]; 5.6 kg/h", "result": "3 (75-100)"}, {"measurement": "pre-emergent herbicidal rating", "setting": "Crabgrass [16]; 1.12 kg/h", "result": "0 (0-24)"}, {"measurement": "pre-emergent herbicidal rating", "setting": "Crabgrass [16]; 5.6 kg/h", "result": "1 (25-49)"}, {"measurement": "pre-emergent herbicidal rating", "setting": "Panicum Spp [17]; 1.12 kg/h", "result": "0 (0-24)"}, {"measurement": "pre-emergent herbicidal rating", "setting": "Panicum Spp [17]; 5.6 kg/h", "result": "2 (50-74)"}, {"measurement": "pre-emergent herbicidal rating", "setting": "Wild Buckwheat [18]; 1.12 kg/h", "result": "1 (25-49)"}, {"measurement": "pre-emergent herbicidal rating", "setting": "Wild Buckwheat [18]; 5.6 kg/h", "result": "3 (75-100)"}]}]}
